One data set deals with T1, Aromatase (Homo sapiens, UniProt P11511).
T1 sequence (P11511 whole entry): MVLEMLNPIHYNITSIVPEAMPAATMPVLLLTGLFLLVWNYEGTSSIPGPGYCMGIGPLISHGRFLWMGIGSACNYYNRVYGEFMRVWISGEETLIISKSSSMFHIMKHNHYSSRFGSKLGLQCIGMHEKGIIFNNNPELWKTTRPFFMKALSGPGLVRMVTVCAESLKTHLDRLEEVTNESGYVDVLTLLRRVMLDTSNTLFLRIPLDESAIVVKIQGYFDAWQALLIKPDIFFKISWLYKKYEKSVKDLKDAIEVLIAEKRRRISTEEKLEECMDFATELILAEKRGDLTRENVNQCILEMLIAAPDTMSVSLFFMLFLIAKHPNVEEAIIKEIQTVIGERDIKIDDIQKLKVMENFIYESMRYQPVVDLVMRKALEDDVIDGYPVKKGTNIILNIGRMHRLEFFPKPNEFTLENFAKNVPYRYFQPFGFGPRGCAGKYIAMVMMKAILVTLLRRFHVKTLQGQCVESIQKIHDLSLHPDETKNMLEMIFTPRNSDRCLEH
It counts as cell-based, JEG-3.

Data set [1] addresses CYP450 (isoform not stated) (Homo sapiens, UniProt P04798+P05177+P05181+P08684+P10632+P10635+P11509+P11712+P13584+P20813+P20815+P20853+P24462+P24903+P33260+P33261+P51589+P78329+P98187+Q02928+Q08477+Q16678+Q16696+Q5TCH4+Q6VVX0+Q7Z449+Q8TAV3+Q96SQ9+Q9HB55). Description: in vitro. The note with it: Liver.
A further data set addresses T2, Cytochrome P450 1B1 (Homo sapiens, UniProt Q16678).
T2 sequence (Q16678 whole entry): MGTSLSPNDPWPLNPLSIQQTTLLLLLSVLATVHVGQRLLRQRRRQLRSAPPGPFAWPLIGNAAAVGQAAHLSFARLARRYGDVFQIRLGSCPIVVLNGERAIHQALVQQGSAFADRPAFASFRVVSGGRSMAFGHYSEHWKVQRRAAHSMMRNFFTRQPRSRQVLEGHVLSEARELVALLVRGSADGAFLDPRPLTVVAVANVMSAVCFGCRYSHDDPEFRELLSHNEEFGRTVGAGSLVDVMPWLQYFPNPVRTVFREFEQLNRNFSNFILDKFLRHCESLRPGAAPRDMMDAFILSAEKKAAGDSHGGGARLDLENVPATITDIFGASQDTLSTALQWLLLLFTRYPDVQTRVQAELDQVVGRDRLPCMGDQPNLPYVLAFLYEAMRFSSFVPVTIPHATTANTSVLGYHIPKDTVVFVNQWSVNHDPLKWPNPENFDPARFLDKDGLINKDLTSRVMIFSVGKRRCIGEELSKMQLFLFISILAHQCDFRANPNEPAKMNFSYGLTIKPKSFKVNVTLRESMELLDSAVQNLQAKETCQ

In another data set the target is Cytochrome P450 2C19 (Homo sapiens, UniProt P33261).
Sequence of Cytochrome P450 2C19 (P33261 whole entry): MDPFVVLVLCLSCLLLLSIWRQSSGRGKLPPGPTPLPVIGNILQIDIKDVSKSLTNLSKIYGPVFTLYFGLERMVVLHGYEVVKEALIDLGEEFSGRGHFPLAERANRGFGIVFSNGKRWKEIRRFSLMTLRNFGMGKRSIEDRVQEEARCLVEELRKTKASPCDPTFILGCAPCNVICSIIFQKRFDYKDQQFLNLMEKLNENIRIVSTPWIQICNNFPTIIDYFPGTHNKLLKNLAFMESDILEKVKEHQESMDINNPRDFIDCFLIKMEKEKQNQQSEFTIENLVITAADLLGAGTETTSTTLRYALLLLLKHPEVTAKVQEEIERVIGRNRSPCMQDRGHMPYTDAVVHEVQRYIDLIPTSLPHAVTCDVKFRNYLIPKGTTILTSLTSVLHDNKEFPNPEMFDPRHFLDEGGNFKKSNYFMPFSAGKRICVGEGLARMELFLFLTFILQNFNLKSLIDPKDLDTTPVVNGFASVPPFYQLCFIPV
Data set [2] addresses T3, Steroid 17-alpha-hydroxylase/17,20 lyase (Homo sapiens, UniProt P05093).
T3 sequence (P05093 whole entry): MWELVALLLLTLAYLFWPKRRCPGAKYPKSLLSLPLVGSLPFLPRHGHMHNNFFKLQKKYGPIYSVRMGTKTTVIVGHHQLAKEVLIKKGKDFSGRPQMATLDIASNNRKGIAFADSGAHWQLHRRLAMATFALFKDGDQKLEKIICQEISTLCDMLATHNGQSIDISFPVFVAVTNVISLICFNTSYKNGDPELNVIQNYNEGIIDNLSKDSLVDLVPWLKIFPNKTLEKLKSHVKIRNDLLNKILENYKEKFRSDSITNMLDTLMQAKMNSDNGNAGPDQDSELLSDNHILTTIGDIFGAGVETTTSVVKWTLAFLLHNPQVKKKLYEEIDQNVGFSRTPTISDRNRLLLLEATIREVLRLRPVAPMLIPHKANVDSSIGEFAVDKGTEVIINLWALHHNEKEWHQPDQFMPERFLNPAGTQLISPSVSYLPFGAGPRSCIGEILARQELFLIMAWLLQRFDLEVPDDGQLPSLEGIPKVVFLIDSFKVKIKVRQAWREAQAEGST
Format: ADME.
Description: Inhibition of human testicular CYP17

The results in this text go back to ChEMBL document CHEMBL5375941, “Combating breast cancer with non-steroidal aromatase inhibitors (NSAIs): Understanding the chemico-biological interactions through comparative SAR/QSAR study” (Eur J Med Chem, 2017).

The IC50 is the midpoint of a concentration-inhibition curve. What is called pIC50 is −log10 of the IC50, conventionally taken in molar units. A lower pIC50 goes with a high IC50.

Description for Cytochrome P450 1B1: Inhibition of recombinant human CYP1B1 using 7-ethyl-0-resorufin as substrate incubated for 30 mins in presence of NADPH
Description for Cytochrome P450 2C19: Inhibition of CYP2C19 in human liver microsomes incubated in presence NADPH

On Aromatase, `N#Cc1ccccc1-c1cccc(Cn2cncn2)c1` showed an IC50 of 0.00701 µM.

Compound `Oc1ccc2c(c1)CCC1C(c3ccncc3)C21` (stereo unspecified) had an IC50 in data set [1] of 2810 µM.

For `Oc1cccc2c1CCC1C(c3ccncc3)C21` (stereo unspecified), half-maximal inhibition in data set [1] (IC50) was put at 6.05 µM.

Compound `COc1ccc(/C=C/c2c(CC=C(C)C)c(O)cc(O)c2CC=C(C)C)cc1` yielded a pIC50 against Cytochrome P450 1B1 of 13.573.

In turn, `CCn1cc(C(c2ccc(Cl)cc2)n2ccnn2)c2cc(Br)ccc21` (stereo unspecified) gave a half-inhibitory concentration (IC50) at Cytochrome P450 2C19 of 10 µM.

Take `c1ccc2c(c1)CCC1C(c3ccncc3)C21` (stereo unspecified): the IC50 in data set [2] was 39.5 µM.
